Measured values reported in patent publication US10039844B2, “Imaging tumor glycolysis by non-invasive measurement of pyruvate kinase M2” (The Board of Trustees of the Leland Stanford Junior …, priority 2014, dated 2018).

Legend:
[1] = system: PKM2 in orthotopic GBM39 PDX tumors; test: PET imaging of orthotopic GBM39 PDX tumors at baseline and after TEPP-46 blocking; assay type: in vivo, mouse
Description: (§1) In vivo Tumor Models: For subcutaneous tumor models, U87 tumor cells (5×10^6 cells; 100 μL PBS) were injected subcutaneously on the back of female BALB/c nude mice (aged 6-8 weeks; Charles River Laboratories) and grown to approximately 150 mm^3. Tumor dimensions were measured periodically using a caliper (by the same experienced researcher), with tumor volumes calculated by the equation: volume=(π/6)×a×b×c, where a, b, and c represent three orthogonal axes of the tumor. For orthotopic brain tumor models, 2×10^5 U87 cells were implanted 0.5 mm anterior and 2 mm to the right of the bregma in the brains of 6-8 week-old nude mice, held in place using a stereotactic unit. The cells, suspended in 4 μL PBS, were injected at a depth of 3 mm over 5 min with an AS blunt-ended Hamilton syringe, which was subsequently held in place for a further 5 min. Animals were anaesthetized with an i.p. injection of 150 mg/kg ketamine, 15 mg/kg xylazine. Mice were subsequently imaged by MRI and PET 32-35 days post intracranial injection and GBM39 tumor-bearing mice were imaged between 44-50 days after implantation.
(§2) PET imaging scans were carried out on a docked Siemens Inveon PET/CT scanner (matrix size, 128×128×159; CT attenuation-corrected; non-scatter corrected), following a bolus i.v. injection of approximately 18.5 MBq of [^11C]DASA-23 into tumor-bearing mice. Dynamic scans were acquired in list mode format over 60 min. The acquired data were then sorted into 0.5-mm sinogram bins and 19 time frames for image reconstruction (4×15 s, 4×60 s and 11×300 s), which was done by iterative reconstruction using the following parameters: 3D ordered-subsets expectation maximization (3D-OSEM) followed by fast maximum a posteriori (fastMAP); MAP OSEM interations, 2; MAP subsets, 16; MAP iterations, 18.
(§3) The count densities were averaged for all volumes of interest at each time point to obtain a time versus radioactivity curve (TAC). Tumor and tissue TACs were normalized to injected dose, measured by a CRC-15 PET dose calibrator (Capintec, Inc.), and expressed as percentage injected dose per milliliter of tissue (% ID/mL). The area under the TAC, calculated as the integral of % ID/mL from 0 to 60 min, and the normalized uptake of radiotracer at 60 min (% ID/mL60) were also used for comparisons. Siemens Inveon Research Workplace software (v.4.0) was used for visualization of radiotracer uptake in the tumor, to define the three-dimensional (3D) volumes of interest (VOI) and for 3D-visualization to create volume rendering technique (VRT) images.

[2] = system: HeLa cells; test: Cell uptake and efflux of radiotracer in HeLa cells; assay type: cell-based, human
Description: (§4) Cell Uptake and Efflux Studies: U87 and HeLa cells (2×10^5) were plated into 6-well plates overnight before [^11C]DASA-23 uptake analysis. On the day of the experiment, fresh, pre-warmed DMEM containing 0.925 MBq of [^11C]DASA-23 was added to individual wells (1 mL/well, 9.25±4.63 pmol).
(§5) Cells were incubated with [^11C]DASA-23 at 37° C. and 5% CO2 over a 60 min time course. At the respective time points, plates were placed on ice, washed 3 times with ice-cold phosphate-buffered saline (PBS), and lysed in radioimmunoprecipitation assay buffer (Thermo Fisher Scientific Inc.; 500 μL). 300 μL cell lysates were transferred to counting tubes and decay-corrected radioactivity was determined on a y counter (Cobra II Auto-Gamma counter; Packard Biosciences Co.). The remaining lysate was frozen and used following radioactive decay for protein determination using a bicinchoninic acid (BCA) 96-well plate assay (Thermo Fisher Scientific Inc.) and for immunoblotting. In addition, 10 μL standards from the 0.925 MBq/mL solution added to cells were counted to quantitate percentage radiotracer uptake. For efflux studies, cells were incubated with radiotracer for 60 min, washed 3 times with room temperature (RT) Hank's Buffered Salt Solution (HBSS) before subsequent incubation at 37° C. in fresh, radiotracer-free, DMEM. At allotted times, samples were processed.

[3] = system: orthotopic U87 human gliomas; test: PET imaging of orthotopic U87 tumors in mice; assay type: in vivo, mouse; details: 30 min after injection
Description: as §1, with “Animals were anaesthetized with an i.p. injection of 150 mg/kg ketamine, 15 mg/kg xylazine. Mice were subsequently imaged by MRI and PET 32-35 days post intracranial injection and GBM39 tumor-bearing mice were imaged between 44-50 days after implantation.” left out
The count densities were averaged for all volumes of interest at each time point to obtain a time versus radioactivity curve (TAC). Tumor and tissue TACs were normalized to injected dose, measured by a CRC-15 PET dose calibrator (Capintec, Inc.), and expressed as percentage injected dose per milliliter of tissue (% ID/mL). The area under the TAC, calculated as the integral of % ID/mL from 0 to 60 min, and the normalized uptake of radiotracer at 60 min (% ID/mL60) were also used for comparisons. […]

[4] = molecular target: T1, PKM2 (Homo sapiens, UniProt P14618); test: Radiotracer uptake after PKM2 siRNA knockdown in HeLa cells; assay type: cell-based; set-up: endogenous in cells; host or cells: HeLa
Description: PKM2 siRNA: Time course PKM2 knockdown in HeLa cells was assessed over 72 h post-transfection. Cells were seeded in 6-well plates in antibiotic-free DMEM at 1.5×10^6 cells/well 24 h prior to siRNA transfection with DharmaFECT1 (Thermo Scientific), according to the manufacturer's instruction. Specific siRNA targeting only PKM2 were custom made by Thermo Scientific using the following sequences: […] (sense) (SEQ ID NO: 1), […] (antisense) (SEQ ID NO: 2). Scrambled siRNA (siCtrl; Cell Signaling Technology) was used as a control. siRNA were added at a final concentration of 25 nM. [^11C]DASA-23 uptake (0.925 MBq/mL) was measured after 30 min in cells transfected with siCtrl and siPKM2 at 24 h, 48 h and 72 h post transfection, and processed as described in Example 4, above. Untreated cells were used as a further control, measured 24 h post addition of fresh DMEM and 96 h post seeding.
Western Blotting: Monoclonal rabbit antibody to PKM1 and PKM2 (1:1000 dilution, Cell Signaling Technology) were used in a standard western blotting protocol. A rabbit anti-actin antibody (Sigma-Aldrich Co. Ltd; 1:2000) was used as a loading control. Blots were scanned and signal quantification was performed using ImageJ (National Institutes of Health).
Target sequence in this assay (P14618 2-531 limits assumed): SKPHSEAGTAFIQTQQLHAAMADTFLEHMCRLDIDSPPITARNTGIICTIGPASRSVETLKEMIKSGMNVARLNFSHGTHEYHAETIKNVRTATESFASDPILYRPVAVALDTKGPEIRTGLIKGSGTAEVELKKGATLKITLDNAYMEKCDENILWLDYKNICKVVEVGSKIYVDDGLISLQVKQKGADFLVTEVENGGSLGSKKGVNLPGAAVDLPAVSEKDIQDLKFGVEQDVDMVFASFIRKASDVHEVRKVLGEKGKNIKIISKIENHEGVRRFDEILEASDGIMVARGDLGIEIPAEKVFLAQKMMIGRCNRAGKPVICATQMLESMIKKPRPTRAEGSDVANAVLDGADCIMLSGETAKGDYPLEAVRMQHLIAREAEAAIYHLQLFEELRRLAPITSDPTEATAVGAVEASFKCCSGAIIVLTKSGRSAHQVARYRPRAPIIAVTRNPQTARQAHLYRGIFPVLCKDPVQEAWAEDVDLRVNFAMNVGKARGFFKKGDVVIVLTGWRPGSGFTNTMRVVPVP

[5] = molecular target: T1, PKM2; details: versus PKM1, PKR and PKL; cited from earlier work
Target sequence in this assay (P14618 whole entry, species assumed): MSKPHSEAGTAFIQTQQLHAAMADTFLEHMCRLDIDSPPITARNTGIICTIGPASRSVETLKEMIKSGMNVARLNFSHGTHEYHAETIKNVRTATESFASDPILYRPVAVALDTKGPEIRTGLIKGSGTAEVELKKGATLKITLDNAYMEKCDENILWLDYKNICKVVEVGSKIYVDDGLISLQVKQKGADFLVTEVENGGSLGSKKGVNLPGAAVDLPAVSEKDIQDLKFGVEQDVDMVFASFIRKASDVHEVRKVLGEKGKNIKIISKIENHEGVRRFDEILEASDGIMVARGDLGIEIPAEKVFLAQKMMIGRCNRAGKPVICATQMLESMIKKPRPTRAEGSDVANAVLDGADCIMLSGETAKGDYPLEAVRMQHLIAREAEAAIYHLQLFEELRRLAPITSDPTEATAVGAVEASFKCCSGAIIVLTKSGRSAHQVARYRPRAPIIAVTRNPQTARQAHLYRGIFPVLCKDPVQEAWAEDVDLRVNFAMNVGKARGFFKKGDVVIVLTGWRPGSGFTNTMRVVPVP

[6] = system: subcutaneous U87 human glioma xenografts; test: PET/CT and ex vivo biodistribution in mice bearing subcutaneous U87 xenografts; set-up: species or system mouse
Description: as §1, §2, §3
Ex vivo Biodistribution: After the PET imaging studies, 60 min post radiotracer administration, mice were sacrificed by exsanguination via cardiac puncture and tissues harvested. Tissue radioactivity for all organs was subsequently determined on a gamma counter (decay-corrected; Cobra II Auto-Gamma counter, Packard Biosciences Co, Pangbourne, UK). Ten-microliter standards from the stock activity were also counted for data normalization. Data were expressed as percent injected dose per gram of tissue (% ID/g).

[7] = system: U87 human glioma cells; test: Cell uptake and efflux of radiotracer in U87 cells; assay type: cell-based
Description: as §4, §5

[8] = Ex vivo mouse plasma stability; assay type: in vitro ADME; details: after 60 min, 37° C.
Description: Plasma Stability: [^11C]DASA-23 stability in mouse plasma was assessed ex vivo according to previously described methodology (James et al., (2012) J. Med. Chem. 55: 8272-8282, incorporated herein by reference in its entirety.
Samples were incubated for 10 min, 30 min, and 60 min and compared to a standard from the respective injected probe.

[9] = 30 min post removal of exogenous radiotracer

Cn1c2cc([S+](C)[O-])sc2c2cnn(Cc3cccc(N)c3)c(=O)c21 (centres unmarked) [TEPP-46, 6-((3-Aminophenyl)methyl)-4-methyl-2-methylsulfinylthieno[3,4]pyrrolo[1,3-d]pyridazin-5-one, reference compound]
decrease of tumor-associated [^11C]DASA-23 retention ([1]; TEPP-46 50 mg/kg i.p., 1 hour before radiotracer): 42%
effect on [^11C]DASA-23 tumor signal ([1]; one hour after TEPP-46 injection): complete ablation of tumor signal to background levels

[11CH3]Oc1ccc(S(=O)(=O)N2CCN(S(=O)(=O)c3c(F)cccc3F)CC2)cc1 [[^11C]DASA-23, 1-((2,6-difluorophenyl)sulfon-yl)-4-((4-(methoxy-^11C)phenyl)sulfonyl)piperazine]
initial intracellular radioactivity retained [2, 9]: about 40%
cellular uptake ([2]; by 30 min): 14.9±2.0 %radioactivity/mg protein
radioactivity in the contralateral background tissue [3]: 0.78±0.18 % ID/g
radioactivity in the tumor ([3]; orthotopic U87 tumor): 1.68±0.47 % ID/g
reduction in uptake in siPKM2 cells versus control siRNA ([4]; 24 h post transfection): 16.5%
uptake in siPKM2 cells as % of siCtrl cells ([4]; 72 h post transfection): 44.5%
tumor-associated retention at baseline ([1]; GBM39 tumor, 30 min after radiotracer injection): 1.61±0.25 % ID/g
tumor-associated retention after TEPP-46 ([1]; GBM39 tumor, 30 min after radiotracer injection, 1 hour after TEPP-46 50 mg/kg i.p.): 0.93±0.10 % ID/g
uptake in control, contralateral healthy brain ([1]; GBM39 tumor-bearing mice): 0.79±0.18 % ID/g
selectivity of activation versus other pyruvate kinase isozymes [5]: selective activation of PKM2
uptake ratio of U87 tumor to blood ([6]; 60 min post injection): 1.1
uptake ratio of U87 tumor to brain ([6]; 60 min post injection): 2.1
uptake ratio of U87 tumor to muscle ([6]; 60 min post injection): 1.6
time of peak brain uptake ([6]; dynamic PET, normal brain, after injection): 30 s
time to reach background levels in brain ([6]; dynamic PET, post injection): ≤ 10 min
time of peak tumor uptake ([6]; dynamic PET, subcutaneous U87 tumor): 10 min
accumulation in the brain ([6]; ex vivo biodistribution): did not accumulate in the brain
U87 tumor uptake ([6]; ex vivo biodistribution, 60 min post injection): 1.78±0.23 % of the injected dose (ID)/g
initial intracellular radioactivity retained [7, 9]: about 40%
cellular uptake ([7]; by 30 min): 19.6±2.0 % radioactivity/mg protein
parent remaining in plasma [8]: > 96%
